Where two headings read alike, the source gives them in different places.
Tested on: trans-translation
Test: microbe, parasite or virus in culture
Type: cell-based, Escherichia coli

O=C(Nc1nnc(-c2ccc(F)cc2)o1)N1CCc2ccccc2C1 [MBX-4132]
IC50 (Escherichia coli, E. coli non-stop luciferase reporter, Fig. 1B, read-out: in vivo luc-trpAt IC50): 600 nM
fold induction at 0.046875 µM (Escherichia coli, read-out: fold induction, AVE 190919+190925, [4132] 0.046875 uM): 1.01
fold induction at 0.0625 µM (Escherichia coli, read-out: fold induction, AVE 190919+190925, [4132] 0.0625 uM): 0.976
fold induction at 0.09375 µM (Escherichia coli, read-out: fold induction, AVE 190919+190925, [4132] 0.09375 uM): 1.01
fold induction at 0.125 µM (Escherichia coli, read-out: fold induction, AVE 190919+190925, [4132] 0.125 uM): 1.05
fold induction at 0.1875 µM (Escherichia coli, read-out: fold induction, AVE 190919+190925, [4132] 0.1875 uM): 1.2
fold induction at 0.25 µM (Escherichia coli, read-out: fold induction, AVE 190919+190925, [4132] 0.25 uM): 1.35
fold induction at 0.375 µM (Escherichia coli, read-out: fold induction, AVE 190919+190925, [4132] 0.375 uM): 1.66
fold induction at 0.5 µM (Escherichia coli, read-out: fold induction, AVE 190919+190925, [4132] 0.5 uM): 2
fold induction at 0.75 µM (Escherichia coli, read-out: fold induction, AVE 190919+190925, [4132] 0.75 uM): 2.22
fold induction at 1 µM (Escherichia coli, read-out: fold induction, AVE 190919+190925, [4132] 1 uM): 2.22
fold induction at 1.5 µM (Escherichia coli, read-out: fold induction, AVE 190919+190925, [4132] 1.5 uM): 2.16
fold induction at 0.046875 µM (Escherichia coli, read-out: fold induction, AVE per run, [4132] 0.046875 uM, run 190919 or 190925): 1.09
fold induction at 0.0625 µM (Escherichia coli, read-out: fold induction, AVE per run, [4132] 0.0625 uM, run 190919 or 190925): 1.02
fold induction at 0.09375 µM (Escherichia coli, read-out: fold induction, AVE per run, [4132] 0.09375 uM, run 190919 or 190925): 1.04
fold induction at 0.125 µM (Escherichia coli, read-out: fold induction, AVE per run, [4132] 0.125 uM, run 190919 or 190925): 1.06
fold induction at 0.1875 µM (Escherichia coli, read-out: fold induction, AVE per run, [4132] 0.1875 uM, run 190919 or 190925): 1.16
fold induction at 0.25 µM (Escherichia coli, read-out: fold induction, AVE per run, [4132] 0.25 uM, run 190919 or 190925): 1.35
fold induction at 0.375 µM (Escherichia coli, read-out: fold induction, AVE per run, [4132] 0.375 uM, run 190919 or 190925): 1.66
fold induction at 0.5 µM (Escherichia coli, read-out: fold induction, AVE per run, [4132] 0.5 uM, run 190919 or 190925): 1.82
fold induction at 0.75 µM (Escherichia coli, read-out: fold induction, AVE per run, [4132] 0.75 uM, run 190919 or 190925): 1.93
fold induction at 1 µM (Escherichia coli, read-out: fold induction, AVE per run, [4132] 1 uM, run 190919 or 190925): 1.9
fold induction at 1.5 µM (Escherichia coli, read-out: fold induction, AVE per run, [4132] 1.5 uM, run 190919 or 190925): 1.86
fold induction, AVE per run ([4132] 0.046875 uM, run 190919 or 190925, 0.046875 µM): 0.9318
fold induction, AVE per run ([4132] 0.0625 uM, run 190919 or 190925, 0.0625 µM): 0.9331
fold induction, AVE per run ([4132] 0.09375 uM, run 190919 or 190925, 0.09375 µM): 0.9749
fold induction, AVE per run ([4132] 0.125 uM, run 190919 or 190925, 0.125 µM): 1.0347
fold induction, AVE per run ([4132] 0.1875 uM, run 190919 or 190925, 0.1875 µM): 1.234
fold induction, AVE per run ([4132] 0.25 uM, run 190919 or 190925, 0.25 µM): 1.356
fold induction, AVE per run ([4132] 0.375 uM, run 190919 or 190925, 0.375 µM): 1.653
fold induction, AVE per run ([4132] 0.5 uM, run 190919 or 190925, 0.5 µM): 2.18
fold induction, AVE per run ([4132] 0.75 uM, run 190919 or 190925, 0.75 µM): 2.51
fold induction, AVE per run ([4132] 1 uM, run 190919 or 190925, 1 µM): 2.546
fold induction, AVE per run ([4132] 1.5 uM, run 190919 or 190925, 1.5 µM): 2.459

From publication PMC7979765, “trans-Translation inhibitors bind to a novel site on the ribosome and clear Neisseria gonorrhoeae in vivo” (Nature Communications, 2021)
